Activity calls are given as the source filed them. The calls are words filed in the database; no cut-off is given here.
What was measured:
Type in all cases: cell-based
[1] = molecular target: T1, Peroxisome proliferator-activated receptor alpha (Homo sapiens) (UniProt Q07869); assay: Agonist activity at Gal4-tagged human PPARalpha expressed in HEK293 cells at 3 to 30 uM incubated for 16 to 20 hrs by luciferase and beta-galactosidase activity based reporter gene assay
T1 sequence (whole entry): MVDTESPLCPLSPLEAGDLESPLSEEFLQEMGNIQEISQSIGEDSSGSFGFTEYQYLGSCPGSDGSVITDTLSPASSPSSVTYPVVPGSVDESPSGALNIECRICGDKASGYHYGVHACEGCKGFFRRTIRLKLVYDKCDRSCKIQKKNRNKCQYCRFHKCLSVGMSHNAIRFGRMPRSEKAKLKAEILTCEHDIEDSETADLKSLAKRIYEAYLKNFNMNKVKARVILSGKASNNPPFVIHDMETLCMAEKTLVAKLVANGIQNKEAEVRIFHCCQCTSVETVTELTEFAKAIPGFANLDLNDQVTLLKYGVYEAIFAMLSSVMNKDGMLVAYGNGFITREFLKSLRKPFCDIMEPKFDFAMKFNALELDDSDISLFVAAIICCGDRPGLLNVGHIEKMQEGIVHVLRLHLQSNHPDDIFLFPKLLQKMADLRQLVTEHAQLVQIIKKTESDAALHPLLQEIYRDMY

[2] = molecular target: T2, Peroxisome proliferator-activated receptor delta (Homo sapiens) (UniProt Q03181); assay: Agonist activity at Gal4-tagged human PPARdelta expressed in HEK293 cells at 3 to 30 uM incubated for 16 to 20 hrs by luciferase and beta-galactosidase activity based reporter gene assay
T2 sequence (whole entry): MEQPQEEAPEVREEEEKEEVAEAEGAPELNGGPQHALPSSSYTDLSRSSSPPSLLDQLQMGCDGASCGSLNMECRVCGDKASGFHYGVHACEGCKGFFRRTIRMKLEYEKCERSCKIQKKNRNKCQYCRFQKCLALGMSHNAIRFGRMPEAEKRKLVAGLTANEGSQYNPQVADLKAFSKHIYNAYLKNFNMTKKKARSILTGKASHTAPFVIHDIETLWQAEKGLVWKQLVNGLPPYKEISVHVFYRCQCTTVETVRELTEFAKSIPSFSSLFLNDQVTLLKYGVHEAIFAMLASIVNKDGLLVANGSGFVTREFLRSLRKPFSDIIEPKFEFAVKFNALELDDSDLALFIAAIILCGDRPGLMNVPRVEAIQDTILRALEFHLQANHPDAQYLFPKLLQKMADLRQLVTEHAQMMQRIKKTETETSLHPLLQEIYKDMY

[3] = molecular target: T3, Peroxisome proliferator-activated receptor gamma (Homo sapiens) (UniProt P37231); assay: Agonist activity at Gal4-tagged human PPARgamma expressed in HEK293 cells at 3 to 30 uM incubated for 16 to 20 hrs by luciferase and beta-galactosidase activity based reporter gene assay
T3 sequence (whole entry): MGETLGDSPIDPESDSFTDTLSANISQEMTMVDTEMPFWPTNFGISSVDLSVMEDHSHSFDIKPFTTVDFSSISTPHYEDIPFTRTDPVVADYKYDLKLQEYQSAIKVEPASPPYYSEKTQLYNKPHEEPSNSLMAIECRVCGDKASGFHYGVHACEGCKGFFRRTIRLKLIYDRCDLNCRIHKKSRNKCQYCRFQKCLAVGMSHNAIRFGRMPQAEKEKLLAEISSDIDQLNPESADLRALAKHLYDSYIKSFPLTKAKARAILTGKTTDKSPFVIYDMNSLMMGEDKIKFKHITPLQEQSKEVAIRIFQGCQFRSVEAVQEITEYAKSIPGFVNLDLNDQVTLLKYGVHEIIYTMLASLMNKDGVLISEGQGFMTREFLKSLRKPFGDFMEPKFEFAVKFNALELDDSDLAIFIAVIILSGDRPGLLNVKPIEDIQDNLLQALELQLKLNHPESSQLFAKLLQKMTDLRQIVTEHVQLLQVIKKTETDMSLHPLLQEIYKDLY

[4] = tested on: HEK293; assay: Toxicity against HEK293 cells assessed as reduction in cell viability at 30 uM; details: human, hek293, 30 µM

SMILES	Activity [1]	Activity [2]	Activity [3]	Activity [4]
CCCCCCCC[Si](CCCC)(CCCC)CCCCCCCC(=O)NCCO	inactive	inactive	inactive	–
CCCCCCCC[Si](CC)(CC)CCCCCCCC(=O)NCCO	Active	Active	inactive	–
CCCCCCCCCCCCCCCCCC(=O)NCCO	inactive	–	inactive	–
CCCCCCC[Si](CC)(CC)CCCCCCCC(=O)NCCO	inactive	Active	inactive	Toxic
CCCCCCCC/C=C\CCCCCCCC(=O)NCCO	Active	–	–	–
CCCCCCCC[Si](CCC)(CCC)CCCCCCCC(=O)NCCO	Active	Active	inactive	–
CCCCCCCC[Si](CC)(CC)CCCCCCC(=O)NCCO	inactive	inactive	inactive	–
CCCCCCCC[Si](C)(C)CCCCCCCC(=O)NCCO	Active	Active	inactive	–

Reference: ChEMBL document CHEMBL3600336, “Design and synthesis of silicon-containing fatty acid amide derivatives as novel peroxisome proliferator-activated receptor (PPAR) agonists” (Bioorg Med Chem Lett, 2015)
